Experimental data reported in the supplement of paper PMC12137928.
Counter-ions that a name gives are not always drawn.

What was measured:
[1] = system: HCT116; details: 72 h
Summary of the method: (§1)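 After seeding at 250 cells per well in 1536-well plates, HCT116 cells were given 5 h to attach. CellTiter-Glo luminescence, scaled to 0% for vehicle and -100% for positive control, was pattern-corrected. Fitting with a four-parameter Hill model produced IC50 and maximal efficacy.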

[2] = system: HCT116; assay: efficacy (maximum % inhibition of viability vs DMSO); higher = more cytotoxic; details: 72 h
Summary of the method: as §1

| Structure (SMILES) | IC50 cell viability ([1]; ICRF193 0 nM) [µM] | IC50 cell viability ([1]; ICRF193 200 nM) [µM] | efficacy ([2]; ICRF193 200 nM) [%] | efficacy ([2]; ICRF193 0 nM) [%] |
| --- | --- | --- | --- | --- |
| CC(=O)OCC1=C(C(=O)O)N2C(=O)[C@@H](NC(=O)[C@H](N)c3ccccc3)[C@H]2SC1 [Cephaloglycin] | > 45.8 | 6.51 | 61.5 |  |
| CCN(CC)CCNC(=O)c1c(C)[nH]c(/C=C2\C(=O)Nc3ccc(F)cc32)c1C [Sunitinib malate] | 18.3 | 16.4 | 111 | 108 |
| COC(=O)N[C@H](C(=O)N1CCC[C@H]1c1ncc(-c2ccc(-c3ccc(-c4cnc([C@@H]5CCCN5C(=O)[C@@H](NC(=O)OC)C(C)C)[nH]4)cc3)cc2)[nH]1)C(C)C [Daclatasvir dihydrochloride] | 29.1 | 29.1 | 101 | 103 |
| Nc1ccc2cc3ccc(N)cc3nc2c1 [Proflavin hemisulfate] | 20.6 | 29.1 | 93.6 | 95.1 |
| CC/C(=C(\c1ccccc1)c1ccc(OCCN(C)C)cc1)c1ccccc1 [Tamoxifen] | 23.1 | 18.3 | 93 | 101 |
| C=CCN1CC[C@]23CCCC[C@H]2[C@H]1Cc1ccc(O)cc13 [Levallorphan] | > 45.8 | 25.9 | 42.1 |  |
| C=C(NC(=O)C(=C)NC(=O)c1csc(C2=N[C@@H]3c4csc(n4)[C@H]4NC(=O)c5csc(n5)[C@H]([C@](C)(O)[C@@H](C)O)NC(=O)[C@H]5CSC(=N5)/C(=C/C)NC(=O)[C@H]([C@@H](C)O)NC(=O)c5csc(n5)[C@]3(CC2)NC(=O)[C@H](C)NC(=O)C(=C)NC(=O)[C@H](C)NC(=O)[C@H]([C@@H](C)CC)N[C@@H]2C=Cc3c([C@H](C)O)cc(nc3[C@H]2O)C(=O)O[C@@H]4C)n1)C(N)=O [Thiostrepton] | > 45.8 | 5.17 | 58.6 |  |
| O=C1c2c(O)ccc(O)c2C(=O)c2c(NCCNCCO)ccc(NCCNCCO)c21 [Mitoxantrone] | 2.31 | 2.06 | 96.4 | 90.7 |
| CC(C)COCC(CN(Cc1ccccc1)c1ccccc1)N1CCCC1 (stereo not drawn) [Bepridil] | 20.6 | 29.1 | 73.2 | 85.1 |
| NS(=O)(=O)c1ccc(-n2nc(C(F)(F)F)cc2-c2ccc(F)cc2)cc1 [Mavacoxib] | 29.1 | 20.6 | 51.5 | 56.9 |
| CC(=O)O[C@H]1C[C@H](O[C@H]2[C@@H](O)C[C@H](O[C@H]3[C@@H](O)C[C@H](O[C@H]4CC[C@@]5(C)[C@H](CC[C@@H]6[C@@H]5CC[C@]5(C)[C@@H](C7=CC(=O)OC7)CC[C@]65O)C4)O[C@@H]3C)O[C@@H]2C)O[C@H](C)[C@H]1O [Digitoxin 3'''-Acetate] | 0.231 | 0.116 | 87.8 | 75 |
| O=c1c(C2CC(c3ccc(-c4ccc(Br)cc4)cc3)Cc3ccccc32)c(O)sc2ccccc12 (stereo not drawn) [Difethialone] | 23.1 | 18.3 | 68.3 | 46.7 |
| c1ccc2c(c1)Sc1ccccc1N2CC1CN2CCC1CC2 (stereo not drawn) [Mequitazine] | 16.4 | 20.6 | 96.8 | 103 |
| C[C@H]1[C@H](OC(=O)CCC(=O)O)O[C@@H]2O[C@@]3(C)CC[C@H]4[C@H](C)CC[C@@H]1[C@@]24OO3 [ARTESUNATE] | 1.64 | 0.73 | 86.8 | 93.1 |
| Cc1cc(/C=C/C#N)cc(C)c1Nc1ccnc(Nc2ccc(C#N)cc2)n1 [Rilpivirine] | 20.6 | 18.3 | 84.8 | 83.7 |
| S=c1nc[nH]c2nc[nH]c12 [6-mercaptopurine] | 2.59 | 3.26 | 83.2 | 91.6 |
| O=C(c1ccc(OCCN2CCCCC2)cc1)c1c(-c2ccc(O)cc2)sc2cc(O)ccc12 [Raloxifene hydrochloride] | 18.3 | 20.6 | 88.8 | 98.1 |
| O=C(O)C[C@H](O)C[C@H](O)/C=C/c1c(C2CC2)nc2ccccc2c1-c1ccc(F)cc1 [Pitavastatin Calcium] | 7.3 | 3.66 | 110 | 100 |
| Nc1nc(=S)c2[nH]cnc2[nH]1 [6-Thioguanine] | 3.66 | 2.06 | 91.8 | 97.5 |
| C=C1C[C@@H]2CC[C@@]34C[C@H]5O[C@H]6[C@@H](O3)[C@H]3O[C@H](CC[C@@H]3O[C@H]6[C@H]5O4)CC(=O)C[C@@H]3[C@@H](OC)[C@@H](C[C@H](O)CN)O[C@H]3C[C@H]3O[C@@H](CC[C@@H]1O2)C[C@@H](C)C3=C [Eribulin mesylate] | 0.0651 | 0.164 | 77.5 | 90.6 |
| OC[C@H]1O[C@@H](n2cnc3c(S)ncnc32)[C@H](O)[C@@H]1O [Thioinosine] | 3.26 | 3.66 | 93.2 | 95.1 |
| C[C@]12CC[C@H](O)C[C@H]1CC[C@@H]1[C@@H]2CC[C@]2(C)[C@@H](c3ccc(=O)oc3)C[C@H]3O[C@]132 [Bufogenin] | 4.61 | 4.61 | 84.6 | 71.3 |
| O=c1[nH]c(=O)n([C@H]2C[C@H](O)[C@@H](CO)O2)cc1C(F)(F)F [Trifluridine] | 29.1 | 8.2 | 59 | 49.1 |
| CCCCC1C(=O)N(c2ccccc2)N(c2ccc(O)cc2)C1=O (stereo not drawn) [Oxyphenbutazone] | 11.6 | 9.2 | 55.1 | 103 |
| COC(=O)C1=C(C)NC(C)=C(C(=O)OC)C1c1ccccc1[N+](=O)[O-] [Nifedipine] | 23.1 | 23.1 | 90.5 | 94.7 |

| Structure (SMILES) | IC50 cell viability ([1]; ICRF193 0 nM) [µM] | IC50 cell viability ([1]; ICRF193 200 nM) [µM] | efficacy ([2]; ICRF193 200 nM) [%] | efficacy ([2]; ICRF193 0 nM) [%] |
| --- | --- | --- | --- | --- |
| C[C@H]1O[C@@H](O[C@H]2[C@@H](O)C[C@H](O[C@H]3[C@@H](O)C[C@H](O[C@H]4CC[C@@]5(C)[C@H](CC[C@@H]6[C@@H]5C[C@@H](O)[C@]5(C)[C@@H](C7=CC(=O)OC7)CC[C@]65O)C4)O[C@@H]3C)O[C@@H]2C)C[C@H](O)[C@@H]1O [Digoxin] | 0.183 | 0.146 | 83.8 | 76.2 |
| N#Cc1c(N2C[C@@H]3NCCO[C@H]3C2)c(F)cc2c(=O)c(C(=O)O)cn(C3CC3)c12 [Finafloxacin] | > 45.8 | 18.3 | 72.2 |  |
| NCCNc1ccc(NCCN)c2c1C(=O)c1ccncc1C2=O [Pixantronemaleate] | 29.1 | 13 | 82.2 | 83.2 |
| CCCC1CCCCN1 (racemic) [dl-Coniine] | > 45.8 | 4.11 | 66.1 |  |
| CCCCCOc1ccccc1/C(=C\SC)n1ccnc1 [Neticonazole] | 16.4 | 16.4 | 51.1 | 48.1 |
| CCCCC(=O)O [Valeric acid] | > 45.8 | 29.1 | 62 |  |
| CC(=O)c1ccc2c(c1)N(CCCN1CCC(CCO)CC1)c1ccccc1S2 [Piperacetazine] | > 45.8 | 20.6 | 48.7 |  |
| COc1ccc2cc1Oc1ccc(cc1)C[C@H]1c3c(cc4c(c3Oc3cc5c(cc3OC)CCN(C)[C@@H]5C2)OCO4)CCN1C [Cepharanthine] | > 45.8 | 4.61 | 41.2 |  |
| C#C[C@]1(OC(C)=O)CC[C@H]2[C@@H]3CCC4=CC(=NO)CC[C@@H]4[C@H]3CC[C@@]21CC (mixture of isomers) [Norgestimate] | 18.3 | 29.1 | 102 | 84 |
| CC(CCc1ccc(O)cc1)NCCc1ccc(O)c(O)c1 (stereo not drawn) [Dobutamine] | > 45.8 | 23.1 | 83.3 |  |
| C[C@@H](c1nc(-c2ccc(C#N)cc2)cs1)[C@](O)(Cn1cncn1)c1cc(F)ccc1F [Isavuconazole] | > 45.8 | 8.2 | 45.8 |  |
| O=C(CCCN1CCC(n2c(=S)[nH]c3ccccc32)CC1)c1ccc(F)cc1 [Timiperone] | > 45.8 | 18.3 | 46.1 |  |
| CN(C)c1ccc(C(=C2C=CC(=[N+](C)C)C=C2)c2ccccc2)cc1 [Malachite green oxalate] | 0.183 | 0.231 | 96 | 98.5 |
| N=C(N)c1ccc(OCCCOc2ccc(C(=N)N)cc2Br)c(Br)c1 [Dibromopropamidine dihydrochloride] | > 45.8 | 18.3 | 51.6 |  |
| Clc1cccc(Cl)c1NC1=NCCN1 [Clonidine] | > 45.8 | 4.11 | 68.5 |  |
| Oc1cccc(O)c1 [Resorcinol] | > 45.8 | 29.1 | 46.8 |  |
| N#CC(c1ccc(Cl)cc1)c1c(Cl)cc(-n2ncc(=O)[nH]c2=O)cc1Cl (stereo not drawn) [Diclazuril] | 20.6 | 20.6 | 56.7 | 46.5 |
| N=C(N)N/N=C/c1c(Cl)cccc1Cl [Guanabenz] | 23.1 | > 45.8 |  | 45.5 |
| CCCSc1nc(N[C@@H]2C[C@H]2c2ccc(F)c(F)c2)c2nnn([C@@H]3C[C@H](OCCO)[C@@H](O)[C@H]3O)c2n1 [Ticagrelor] | 29.1 | 18.3 | 92.6 | 77.1 |
| CC[C@@]1(O)C(=O)OCc2c1cc1n(c2=O)Cc2c-1nc1ccccc1c2/C=N/OC(C)(C)C [Gimatecan] | 0.183 | > 45.8 |  | 48.8 |
| CNCCCC12CCC(c3ccccc31)c1ccccc12 [Maprotiline hydrochloride] | > 45.8 | 29.1 | 86.5 |  |
| CN(C)CCC=C1c2ccccc2C(C)(C)c2ccccc21 [Melitracen hydrochloride] | > 45.8 | 29.1 | 61.4 |  |
| CC[C@]1(O)C[C@@H]2CN(CCc3c([nH]c4ccccc34)[C@@](C(=O)OC)(c3cc4c(cc3OC)N(C)[C@H]3[C@@](O)(C(=O)OC)[C@H](OC(C)=O)[C@]5(CC)C=CCN6CC[C@]43[C@@H]65)C2)C1 [Vinblastine sulfate] | 0.082 | 0.058 | 82.2 | 75.8 |
| C[C@]12CC[C@@H]3c4ccc(O)cc4CC[C@H]3[C@@H]1CC[C@@H]2O [Estradiol] | 18.3 | 29.1 | 51.8 | 49.5 |
